Data reported in ChEMBL document CHEMBL1201862, “PubChem BioAssay data set” (2004).
Active and inactive are the calls of the source.

Columns and labels:
[1] = Counterscreen for IDE inhibitors: Luminescence-based cell-based high throughput dose response assay to identify compounds that are cytotoxic to HEK cells. [Related pubchem assays: 434962 (Primary screen (IDE inhibitors in singlicate)), 449730 (Counterscreen (Cytotoxicity in triplicate)), 435028 (Confirmation (IDE inhibitors in triplicate)) …; type: functional; settings: HEK293
[2] = target: T1, Voltage-gated N-type calcium channel alpha-1B subunit/Amyloid beta A4 precursor protein-binding family A member 1 (Homo sapiens, UniProt Q00975+Q02410); type: protein assay
[3] = target: T1, Voltage-gated N-type calcium channel alpha-1B subunit/Amyloid beta A4 precursor protein-binding family A member 1; type: protein assay; remark: listed apart in the source
Insulin-degrading enzyme = Insulin-degrading enzyme (Homo sapiens, UniProt P14735); assay: Dose Response: Fluorescence polarization-based cell-based high throughput dose response assay for inhibitors of insulin-degrading enzyme (IDE). [Related pubchem assays: 434962 (Primary screen (IDE inhibitors in singlicate)), 449730 (Counterscreen (Cytotoxicity in triplicate)), 435028 (Confirmation (IDE inhibitors in triplicate)), 434984 (Summary …; type: functional
[4] = target: Potassium voltage-gated channel subfamily KQT member 2 (Rattus norvegicus, UniProt O88943); assay: Mode of action assay - current amplitude concentration response for derivatives of ZTZ240, a potentiator of KCNQ2 potassium channels. [Related pubchem assays: 2258 (Summary assay for the KCNQ2 potentiators.), 2239 (Primary HTS assay for KCNQ2 potentiators with 305606 compounds tested, and 1644 are found to be active.)]; type: functional
[5] = target: T2, RNA-binding protein pos-1 (Caenorhabditis elegans, UniProt G5EF15); assay: disruptors of C. elegans POS-1 RNA interaction – biochemical, fluorescence polarization, dose response (AID 1964);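 further: purified POS-1 fused to maltose binding protein made in E. coli; potency of compounds blocking POS-1 binding to fluorescent RNA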
T2 sequence (G5EF15 whole entry): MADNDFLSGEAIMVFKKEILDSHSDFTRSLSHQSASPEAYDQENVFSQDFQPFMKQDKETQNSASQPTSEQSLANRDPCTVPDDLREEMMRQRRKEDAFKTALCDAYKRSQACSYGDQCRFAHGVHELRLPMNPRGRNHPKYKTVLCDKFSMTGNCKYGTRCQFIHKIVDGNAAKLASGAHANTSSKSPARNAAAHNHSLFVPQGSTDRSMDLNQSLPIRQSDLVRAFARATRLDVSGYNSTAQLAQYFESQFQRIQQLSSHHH

[6] = target: Glyceraldehyde-3-phosphate dehydrogenase (Homo sapiens, UniProt P04406)
[7] = target: T3, Zinc finger protein mex-5 (Caenorhabditis elegans, UniProt Q9XUB2); assay: potency of MEX-5 RNA-binding blockers – biochemical, C. elegans, fluorescence polarization, dose response (AID 1960)
T3 sequence (Q9XUB2 whole entry): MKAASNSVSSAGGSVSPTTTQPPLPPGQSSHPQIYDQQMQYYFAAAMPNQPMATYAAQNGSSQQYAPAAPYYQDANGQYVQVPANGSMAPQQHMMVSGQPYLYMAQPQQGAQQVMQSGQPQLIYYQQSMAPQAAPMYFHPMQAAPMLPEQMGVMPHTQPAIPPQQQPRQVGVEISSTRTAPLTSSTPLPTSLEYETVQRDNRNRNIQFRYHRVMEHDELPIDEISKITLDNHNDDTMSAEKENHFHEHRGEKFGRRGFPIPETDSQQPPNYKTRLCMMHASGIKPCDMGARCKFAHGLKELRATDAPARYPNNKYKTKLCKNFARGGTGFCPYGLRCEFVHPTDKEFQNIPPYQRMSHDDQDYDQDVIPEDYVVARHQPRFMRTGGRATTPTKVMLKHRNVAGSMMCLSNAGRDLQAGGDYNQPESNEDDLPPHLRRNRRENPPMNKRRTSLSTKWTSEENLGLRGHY

[8] = target: Heat shock cognate 71 kDa protein (Homo sapiens, UniProt P11142); assay: In Vitro Hsc70 Dose Response Fluorescence Polarization Assay. [Related pubchem assays: 1072 ]
[9] = target: Heat shock 70 kDa protein 1A (Homo sapiens, UniProt P0DMV8); assay: inhibition of Hsp70 binding activity – biochemical, fluorescence polarization, SAR follow-up (AID 1072)
[10] = tested on: Streptococcus sp. 'group A'; assay: Streptococcus pyogenes SK(-)GAS viability under kanamycin – luminescence, BacTiterGlo, confirmation, counter-screen for streptokinase expression inhibitor project, dose response (AID 1900); type: functional, organism-based
Streptococcus [11] = assay: Luminescence Microorganism-Based Dose Response Follow up to Identify Compounds Cytotoxic to Streptococcus. [Related pubchem assays: 1677 (Project Summary), 1915, 1914, 1902 (Retest at Dose), 1900 (Counter Screen), 1662 (Primary HTS)]; type: functional, organism-based
Streptokinase A = target: T4, Streptokinase A (Streptococcus pyogenes serotype M1, UniProt P10520); assay: viability-normalized secreted streptokinase activity reduction – plasminogen activation absorbance, OD405, dose response (AID 1914); type: functional, Streptococcus pyogenes M1 GAS;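 further: secreted streptokinase activity via plasminogen activation per viability signal from cell pellet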
T4 sequence (P10520 whole entry): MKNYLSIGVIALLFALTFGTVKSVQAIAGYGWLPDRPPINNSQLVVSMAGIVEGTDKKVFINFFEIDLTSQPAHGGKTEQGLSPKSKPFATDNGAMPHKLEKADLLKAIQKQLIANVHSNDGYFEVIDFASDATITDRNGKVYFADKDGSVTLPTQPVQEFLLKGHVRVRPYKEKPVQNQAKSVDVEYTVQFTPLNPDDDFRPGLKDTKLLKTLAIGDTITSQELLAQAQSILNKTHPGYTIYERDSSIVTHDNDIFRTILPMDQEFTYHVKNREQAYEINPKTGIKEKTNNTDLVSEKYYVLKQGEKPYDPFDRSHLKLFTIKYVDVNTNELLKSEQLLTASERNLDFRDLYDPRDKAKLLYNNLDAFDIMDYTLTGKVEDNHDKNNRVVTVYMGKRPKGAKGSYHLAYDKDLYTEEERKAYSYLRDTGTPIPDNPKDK

[12] = viability of PTEN-deleted HCT116 cells – cell-based, HCT116 PTEN knockout, dose response (AID 1047); type: functional;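 further: HCT116 colon tumor cells with PTEN knocked out; cells exposed to compound for 60 hours before readout; potency for loss of cell viability measured by luminescence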
[13] = viability of HCT116 lacking mutant beta-catenin – cell-based, human colon tumor, dose response (AID 1045); type: functional;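 further: HCT116 colon tumor cells with beta catenin knocked out; cells exposed to compound for 60 hours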
Streptococcus [14] = assay: GAS UMAA2166 growth inhibition – luminescence, BacTiterGlo, counter-screen for streptokinase expression inhibitor project, dose response (AID 1915); type: functional, organism-based;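 further: potency for reduction of bacterial viability or growth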
[15] = Luminescence Cell-Based Dose Retest to Confirm Inhibitors of Cancer Stem Cells. [Related pubchem assays (depositor defined):AID2717, AID2721]; type: functional; settings: Homo sapiens
INS1 = assay: INS-1E survival protection against cytokine death – cell-based, luminescence, retest, dose response (AID 449756); type: functional; settings: Rattus norvegicus;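 further: cell death triggered by IL-1 beta plus TNF-alpha plus IFN-gamma mixture; protective hits raise ATP signal compared with cytokine alone wells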
HeLa = assay: Cytotoxicity counterscreen assay for transcriptional activators of heat shock protein 70 (Hsp70). [Related pubchem assays: 1203, 1252 ]; type: functional; settings: Homo sapiens;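 further: cells exposed to compound for 16 hours before readout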
BJ [16] = assay: BJ-TERT fibroblast viability loss – cell-based, RAS-independent, luminescence, dose response (AID 1933); type: functional; settings: Homo sapiens
Galanin receptor type 2 = Galanin receptor type 2 (Homo sapiens, UniProt O43603); assay: Dose Response cell-based high-throughput screening assay to identify antagonists of galanin receptor 2 (GALR2). [Related pubchem assays: 828, 866 ]; type: functional
BJ [17] = assay: cells; type: functional, cell-based; settings: Homo sapiens
[18] = Trypanosoma cruzi growth suppression in host cells – NIH3T3 host cells, beta-gal luminescence, confirmation (AID 2044); type: functional, cell-based;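 further: intracellular parasites grown in NIH/3T3 mouse fibroblasts as host cells; luminescent beta-galactosidase reporter signal from transgenic T. cruzi replicating inside host cells; inhibitors lower the luminescence signal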
[19] = microbe, parasite or virus in culture; type: functional; settings: Mycobacterium tuberculosis
[20] = NIH3T3 cell viability loss – ATP luminescence, mouse fibroblasts, counter-screen, dose response (AID 2010); type: functional, cell-based;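 further: cells exposed to compound for about 90 hours before reading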
BJ [21] = assay: BJ-TERT-LT-ST fibroblast viability loss – cell-based, RAS-independent, luminescence, dose response (AID 1935); type: functional; settings: Homo sapiens;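 further: BJ fibroblasts immortalized with TERT plus LT and ST oncogenes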
[22] = DRD fibroblast viability loss – cell-based, non-viral oncogenic, luminescence, dose response (AID 1934); type: functional; settings: Homo sapiens
[23] = reduction of Shn3 3'UTR-driven luciferase in osteoblasts – cell-based, Clone20 osteoblasts, firefly luciferase, cherry-picked, dose response (AID 624132); type: functional;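 further: firefly luciferase luminescence from reporter carrying the Shn3 3'UTR in osteoblasts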
[24] = loss of viability in HepG2 cells – cell-based, CellTiter-Glo, cherry-picked, cytotoxicity control for Shn3 inhibitor project, dose response (AID 624134); type: functional
[25] = non-specific 3'UTR reporter inhibition in Clone20-Shn3RL – cell-based, Renilla luciferase, cherry-picked, counter-screen for Shn3 inhibitor project, dose response (AID 624133); type: functional

T1 sequence (Q00975 whole entry): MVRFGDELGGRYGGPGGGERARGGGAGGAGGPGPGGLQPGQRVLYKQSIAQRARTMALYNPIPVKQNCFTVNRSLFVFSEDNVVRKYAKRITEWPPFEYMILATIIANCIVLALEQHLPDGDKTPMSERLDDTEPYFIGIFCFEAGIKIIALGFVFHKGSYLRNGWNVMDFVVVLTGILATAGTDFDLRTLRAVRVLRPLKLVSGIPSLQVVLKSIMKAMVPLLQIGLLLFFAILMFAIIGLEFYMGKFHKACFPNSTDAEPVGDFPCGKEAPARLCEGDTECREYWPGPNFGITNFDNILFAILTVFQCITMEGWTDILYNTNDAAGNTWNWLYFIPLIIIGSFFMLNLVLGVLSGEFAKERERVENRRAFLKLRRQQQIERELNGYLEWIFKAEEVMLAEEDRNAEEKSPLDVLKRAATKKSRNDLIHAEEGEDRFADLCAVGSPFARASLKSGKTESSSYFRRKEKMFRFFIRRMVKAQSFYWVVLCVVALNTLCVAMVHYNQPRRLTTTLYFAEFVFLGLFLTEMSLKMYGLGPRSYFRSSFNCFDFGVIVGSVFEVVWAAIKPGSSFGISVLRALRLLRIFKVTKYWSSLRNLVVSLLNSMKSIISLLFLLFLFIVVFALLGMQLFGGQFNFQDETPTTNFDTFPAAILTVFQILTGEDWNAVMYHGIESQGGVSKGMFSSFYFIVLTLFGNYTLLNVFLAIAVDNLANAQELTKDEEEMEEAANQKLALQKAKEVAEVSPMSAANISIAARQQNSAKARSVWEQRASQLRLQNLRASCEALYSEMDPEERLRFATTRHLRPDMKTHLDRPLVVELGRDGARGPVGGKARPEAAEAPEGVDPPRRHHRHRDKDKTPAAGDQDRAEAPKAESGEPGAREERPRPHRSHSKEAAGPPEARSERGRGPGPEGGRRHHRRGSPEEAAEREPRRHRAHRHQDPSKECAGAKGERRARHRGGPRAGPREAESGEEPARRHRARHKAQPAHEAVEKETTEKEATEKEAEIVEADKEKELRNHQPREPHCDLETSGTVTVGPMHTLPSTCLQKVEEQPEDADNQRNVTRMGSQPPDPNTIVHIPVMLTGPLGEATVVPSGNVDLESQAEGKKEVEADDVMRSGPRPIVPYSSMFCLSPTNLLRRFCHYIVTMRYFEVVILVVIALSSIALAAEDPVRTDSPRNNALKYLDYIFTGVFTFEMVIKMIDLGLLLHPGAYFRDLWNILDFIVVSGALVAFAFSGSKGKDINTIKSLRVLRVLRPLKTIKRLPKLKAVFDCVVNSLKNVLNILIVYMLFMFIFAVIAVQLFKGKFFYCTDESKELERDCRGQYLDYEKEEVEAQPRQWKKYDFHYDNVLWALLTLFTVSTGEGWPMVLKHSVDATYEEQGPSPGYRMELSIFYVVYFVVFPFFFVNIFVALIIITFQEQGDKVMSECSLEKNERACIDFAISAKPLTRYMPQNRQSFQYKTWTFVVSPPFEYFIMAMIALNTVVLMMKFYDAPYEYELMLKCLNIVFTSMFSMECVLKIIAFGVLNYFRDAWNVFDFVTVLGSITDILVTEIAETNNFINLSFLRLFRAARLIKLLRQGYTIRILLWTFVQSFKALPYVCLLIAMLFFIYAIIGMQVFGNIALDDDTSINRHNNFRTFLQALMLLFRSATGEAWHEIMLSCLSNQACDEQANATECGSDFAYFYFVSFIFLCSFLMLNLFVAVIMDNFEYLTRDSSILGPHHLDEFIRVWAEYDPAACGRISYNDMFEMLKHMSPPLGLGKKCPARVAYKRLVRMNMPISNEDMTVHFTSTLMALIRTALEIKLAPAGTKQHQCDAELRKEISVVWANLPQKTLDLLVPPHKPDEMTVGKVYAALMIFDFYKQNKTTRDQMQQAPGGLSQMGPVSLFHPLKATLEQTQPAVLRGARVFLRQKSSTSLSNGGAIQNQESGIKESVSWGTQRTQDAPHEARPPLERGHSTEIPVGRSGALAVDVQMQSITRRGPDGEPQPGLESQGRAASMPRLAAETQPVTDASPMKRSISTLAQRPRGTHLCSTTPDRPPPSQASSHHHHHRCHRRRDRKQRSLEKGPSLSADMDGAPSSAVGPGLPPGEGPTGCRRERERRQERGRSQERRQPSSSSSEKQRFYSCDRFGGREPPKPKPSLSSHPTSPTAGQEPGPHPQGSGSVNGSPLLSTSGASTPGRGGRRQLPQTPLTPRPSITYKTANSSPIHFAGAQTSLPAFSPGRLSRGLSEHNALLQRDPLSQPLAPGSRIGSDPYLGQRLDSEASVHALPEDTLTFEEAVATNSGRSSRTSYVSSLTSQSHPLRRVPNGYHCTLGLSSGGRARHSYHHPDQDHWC
T1 sequence (Q02410 whole entry): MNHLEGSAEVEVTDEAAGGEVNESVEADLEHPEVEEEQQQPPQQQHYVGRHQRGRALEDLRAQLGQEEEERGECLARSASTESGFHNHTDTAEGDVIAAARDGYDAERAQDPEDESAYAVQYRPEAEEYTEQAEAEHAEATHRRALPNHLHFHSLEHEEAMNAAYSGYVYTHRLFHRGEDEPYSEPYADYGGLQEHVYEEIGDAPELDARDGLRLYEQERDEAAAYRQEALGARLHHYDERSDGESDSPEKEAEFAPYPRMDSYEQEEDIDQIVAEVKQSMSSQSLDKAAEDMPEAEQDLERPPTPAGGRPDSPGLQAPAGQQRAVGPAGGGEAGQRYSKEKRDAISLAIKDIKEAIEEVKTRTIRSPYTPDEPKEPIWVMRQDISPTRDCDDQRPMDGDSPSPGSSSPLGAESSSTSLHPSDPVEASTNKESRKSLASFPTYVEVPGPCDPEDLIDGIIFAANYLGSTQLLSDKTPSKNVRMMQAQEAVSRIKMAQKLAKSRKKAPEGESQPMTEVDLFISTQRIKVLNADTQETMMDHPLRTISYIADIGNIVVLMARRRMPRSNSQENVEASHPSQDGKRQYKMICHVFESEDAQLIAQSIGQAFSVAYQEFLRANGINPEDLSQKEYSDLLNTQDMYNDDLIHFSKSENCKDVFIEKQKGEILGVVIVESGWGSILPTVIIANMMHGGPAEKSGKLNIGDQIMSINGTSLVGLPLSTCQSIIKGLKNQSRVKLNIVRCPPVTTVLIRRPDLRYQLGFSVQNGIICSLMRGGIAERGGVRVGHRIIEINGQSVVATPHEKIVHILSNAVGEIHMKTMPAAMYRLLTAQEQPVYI
Chain of Heat shock cognate 71 kDa protein (P11142 whole entry): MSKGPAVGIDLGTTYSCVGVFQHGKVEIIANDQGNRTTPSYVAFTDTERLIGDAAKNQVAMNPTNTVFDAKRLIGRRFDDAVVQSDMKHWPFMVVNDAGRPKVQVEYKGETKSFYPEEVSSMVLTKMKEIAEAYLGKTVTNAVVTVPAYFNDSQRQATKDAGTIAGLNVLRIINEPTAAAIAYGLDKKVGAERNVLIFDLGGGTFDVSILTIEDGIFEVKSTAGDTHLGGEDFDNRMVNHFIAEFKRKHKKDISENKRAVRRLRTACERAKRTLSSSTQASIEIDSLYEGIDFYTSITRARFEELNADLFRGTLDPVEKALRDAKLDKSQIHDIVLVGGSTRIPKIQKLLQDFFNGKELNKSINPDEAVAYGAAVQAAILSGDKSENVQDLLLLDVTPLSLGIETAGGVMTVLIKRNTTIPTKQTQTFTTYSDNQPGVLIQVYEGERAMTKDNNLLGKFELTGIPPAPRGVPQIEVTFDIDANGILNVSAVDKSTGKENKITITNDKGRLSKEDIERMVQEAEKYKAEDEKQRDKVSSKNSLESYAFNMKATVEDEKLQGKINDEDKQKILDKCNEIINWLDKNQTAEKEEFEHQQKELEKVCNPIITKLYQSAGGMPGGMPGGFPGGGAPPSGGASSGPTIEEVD
Chain of Potassium voltage-gated channel subfamily KQT member 2 (O88943 whole entry, the tested form may be a part): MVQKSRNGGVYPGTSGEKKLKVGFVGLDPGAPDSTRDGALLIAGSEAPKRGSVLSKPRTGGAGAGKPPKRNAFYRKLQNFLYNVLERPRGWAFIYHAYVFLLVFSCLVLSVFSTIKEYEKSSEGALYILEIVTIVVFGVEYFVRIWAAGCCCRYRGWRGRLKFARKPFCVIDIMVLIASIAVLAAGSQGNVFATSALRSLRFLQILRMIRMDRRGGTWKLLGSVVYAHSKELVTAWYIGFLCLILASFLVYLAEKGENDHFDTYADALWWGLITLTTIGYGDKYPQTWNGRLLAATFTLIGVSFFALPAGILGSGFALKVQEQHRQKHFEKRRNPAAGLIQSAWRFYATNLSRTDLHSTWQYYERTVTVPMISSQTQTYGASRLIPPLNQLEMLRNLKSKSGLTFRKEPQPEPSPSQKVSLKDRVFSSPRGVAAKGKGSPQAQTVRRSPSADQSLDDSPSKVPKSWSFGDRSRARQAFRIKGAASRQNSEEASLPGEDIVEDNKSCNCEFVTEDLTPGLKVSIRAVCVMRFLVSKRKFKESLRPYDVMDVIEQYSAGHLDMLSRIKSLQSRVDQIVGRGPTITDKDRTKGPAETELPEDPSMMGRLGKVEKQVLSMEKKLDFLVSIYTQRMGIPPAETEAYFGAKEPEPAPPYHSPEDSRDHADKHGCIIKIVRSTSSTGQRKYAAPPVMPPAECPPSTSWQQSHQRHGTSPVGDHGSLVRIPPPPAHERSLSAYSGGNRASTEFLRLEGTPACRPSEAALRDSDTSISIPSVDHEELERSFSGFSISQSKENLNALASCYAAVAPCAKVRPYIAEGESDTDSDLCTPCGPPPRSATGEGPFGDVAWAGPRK
Chain of Galanin receptor type 2 (O43603 whole entry): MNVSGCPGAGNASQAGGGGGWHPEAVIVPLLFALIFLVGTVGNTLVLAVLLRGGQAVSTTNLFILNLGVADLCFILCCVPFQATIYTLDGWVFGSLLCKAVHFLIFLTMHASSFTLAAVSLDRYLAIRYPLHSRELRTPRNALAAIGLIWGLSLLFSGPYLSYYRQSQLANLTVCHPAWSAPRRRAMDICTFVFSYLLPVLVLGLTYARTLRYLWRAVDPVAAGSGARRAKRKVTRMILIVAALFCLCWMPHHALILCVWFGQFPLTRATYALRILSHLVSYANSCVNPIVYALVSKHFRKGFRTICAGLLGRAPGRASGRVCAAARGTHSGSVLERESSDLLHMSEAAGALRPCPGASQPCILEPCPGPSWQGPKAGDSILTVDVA

Question: With Cc1cc(C)c2c(=O)n(CC(=O)NCCCN3CCOCC3)sc2n1 as the compound, how does the IC50 [1] read?
Answer: The IC50 was 21.2 µM (not active).

Question: What about the IC50 [2] of the same compound?
Answer: The IC50 was 10.8 µM (active).

Question: And the IC50 [3]?
Answer: Its IC50 is 46 µM (active).

Question: And the IC50 (Insulin-degrading enzyme)?
Answer: The IC50 was 7.16 µM (active).

Question: Which EC50 [4] does the source give for O=C(Nc1ccc(Br)nc1)c1cccc(F)c1 here?
Answer: The EC50 was 1.65 µM (active).

Question: For O=C(O)C1Nc2c(C(F)(F)F)ccc(Cl)c2C2C=CCC12 (stereo not given), which EC50 [5] is on record?
Answer: Its EC50 is 110 µM (active).

Question: What about the IC50 [6] of the same compound?
Answer: The IC50 was > 100 µM (not active).

Question: What about the EC50 [7] of the same compound?
Answer: The EC50 was 61.5 µM (active).

Question: And the IC50 [8]?
Answer: The IC50 was > 100 µM (not active).

Question: What about the IC50 [9] of the same compound?
Answer: The IC50 was > 100 µM (not active).

Question: For O=C(Nc1cc(S(=O)(=O)Nc2ccc(Cl)cc2)ccc1N1CCCCC1)c1ccc(F)cc1, which EC50 [10] is on record?
Answer: The EC50 was 10.2 µM (active).

Question: What about the EC50 (Streptococcus [11]) of the same compound?
Answer: The EC50 was 150 µM (active).

Question: And the EC50 (Streptokinase A)?
Answer: The EC50 was 5.17 µM (active).

Question: And the EC50 [12]?
Answer: The EC50 was 29.4 µM (active).

Question: What about the EC50 [13] of the same compound?
Answer: The EC50 was 21 µM (active).

Question: What about the EC50 (Streptococcus [14]) of the same compound?
Answer: The EC50 was > 150 µM (not active).

Question: And the AC50 [15]?
Answer: Its AC50 is 4.98 µM (active).

Question: What about the AC50 (INS1) of the same compound?
Answer: Its AC50 is 8.05 µM (active).

Question: Which CC50 (HeLa) does the source give for O=C(/C=C/Sc1nc[nH]n1)c1ccc(Cl)cc1 here?
Answer: Its CC50 is > 3.67 µM (not active).

Question: And the EC50 (BJ [16])?
Answer: The EC50 was 4.19 µM (active).

Question: And the IC50 (Galanin receptor type 2)?
Answer: Its IC50 is 10.9 µM (not active).

Question: What about the EC50 (BJ [17]) of the same compound?
Answer: Its EC50 is 6.44 µM (inconclusive).

Question: What about the EC50 [18] of the same compound?
Answer: The EC50 was 1.99 µM (active).

Question: What about the CC50 [19] of the same compound?
Answer: The CC50 was 25.4 µM (active).

Question: What about the EC50 [20] of the same compound?
Answer: Its EC50 is 3.28 µM (active).

Question: And the EC50 (BJ [21])?
Answer: The EC50 was 12.3 µM (active).

Question: What about the EC50 [22] of the same compound?
Answer: The EC50 was 5.81 µM (active).

Question: What about the AC50 [23] of the same compound?
Answer: Its AC50 is 9.76 µM (active).

Question: And the AC50 [24]?
Answer: The AC50 was 31.2 µM (active).

Question: And the AC50 [25]?
Answer: Its AC50 is 14.4 µM (active).
